Laboratory results from patent publication US20150323520A1, “DIAGNOSIS OF KIDNEY TRANSPLANT ACUTE REJECTION” (The Trustees of the Stevens Institute of Technology, priority 2014, published 2015).

Experiment: Mannitol in urine of kidney transplant patients the day after surgery (SERS / ESI-MS)
Format: in vivo
Source text: FIG. 2 is a graph 200 showing SERS spectra for patients who have received kidney transplants and are experiencing AR. The graph 200 plots Raman intensity, in arbitrary units (“a.u.”), along a vertical axis 210 against Raman shift, in cm^−1, along a horizontal axis 220. As a baseline, the chart 200 includes a background spectrum 230 that may be measured when a SERS sensor (e.g., the device 100 of FIG. 1) is immersed in water. The chart 200 also includes three SERS spectra 240, 250, 260 that may be measured when the same SERS sensor is immersed in urine samples of three AR patients. It may be observed that each of the three SERS spectra 240, 250, 260 includes a corresponding peak 242, 252, 262, at a value of about 1360 cm^−1 along the horizontal axis 220. FIG. 3 is a graph 300 showing SERS spectra for patients who have received kidney transplants and are not experiencing AR. The graph 300 plots Raman intensity, in arbitrary units (“a.u.”), along a vertical axis 310 against Raman shift, in cm^−1, along a horizontal axis 320. As a baseline, the chart 300 includes a background spectrum 330 that may be measured when a SERS sensor (e.g., the device 100 of FIG. 1) is immersed in water (e.g., the same background spectrum as is shown in FIG. 2). The chart 300 also includes three SERS spectra 340, 350, 360 that may be measured when the same SERS sensor is immersed in urine samples of three kidney transplant recipients who are not experiencing AR. It may be observed that the three SERS spectra 340, 350, 360 lack a peak at a value of 1360 cm^−1 along the horizontal axis 320. […] The chart 500 includes a SERS spectrum 530 measured when a SERS sensor (e.g., the device 100 of FIG. 1) is immersed in a urine sample of a kidney transplant recipient who is experiencing graft failure. […] The spectra 610, 620, 630 plot intensity, an expression of relative abundance expressed as a percentage, along a vertical axis 640 against mass-to-charge ratio m/z, an expression of the ratio of atomic mass to charge number, which is a dimensionless quantity, along a horizontal axis 650. […]

mannitol in the urine (patients experiencing acute rejection (AR), urine 24 hours after surgery, mannitol (e.g., 20 grams) given during kidney transplant surgery): high levels
metabolism of mannitol (patients experiencing graft failure, SERS peak at 1360 cm^-1 in urine (FIG. 5)): do not metabolize mannitol well
mannitol in patients' urine (transplant patients whose surgery is successful (no AR), urine 24 hours after surgery, mannitol (e.g., 20 grams) given during kidney transplant surgery): barely detectable
SMILES: OC[C@@H](O)[C@@H](O)[C@H](O)[C@H](O)CO [mannitol]
